# Results: ChEMBL document CHEMBL3877299, “Imidazopyridine-fused [1,3]-diazepinones part 2: Structure-activity relationships and antiproliferative activity against melanoma cells” (Eur J Med Chem, 2017)
# Assays:
# Type in all cases: functional
# [1] = Growth inhibition of human EKVX cells assessed as cell growth at 10 uM incubated for 48 hrs by sulforhodamine B assay relative to control; conditions: read-out: Activity
# [2] = Growth inhibition of human SF539 cells assessed as cell growth at 10 uM incubated for 48 hrs by sulforhodamine B assay relative to control; conditions: SF-539, 48 h, read-out: Activity
# [3] = Growth inhibition of human M14 cells assessed as cell growth at 10 uM incubated for 48 hrs by sulforhodamine B assay relative to control; conditions: M14, 48 h, read-out: Activity
# [4] = Growth inhibition of human NCI-H23 cells assessed as cell growth at 10 uM incubated for 48 hrs by sulforhodamine B assay relative to control; conditions: NCI-H23, 48 h, read-out: Activity
# [5] = Growth inhibition of human MCF7 cells assessed as cell growth at 10 uM incubated for 48 hrs by sulforhodamine B assay relative to control; conditions: MCF7, 48 h, read-out: Activity
# [6] = Growth inhibition of human LOXIMVI cells assessed as cell growth at 10 uM incubated for 48 hrs by sulforhodamine B assay relative to control; conditions: LOX IMVI, read-out: Activity
# [7] = Growth inhibition of human NCI-H322M cells assessed as cell growth at 10 uM incubated for 48 hrs by sulforhodamine B assay relative to control; conditions: read-out: Activity
# [8] = Growth inhibition of human MALME-3M cells assessed as cell growth at 10 uM incubated for 48 hrs by sulforhodamine B assay relative to control; conditions: read-out: Activity
# [9] = Growth inhibition of human IGROV1 cells assessed as cell growth at 10 uM incubated for 48 hrs by sulforhodamine B assay relative to control; conditions: IGROV-1, 48 h, read-out: Activity
# [10] = Growth inhibition of human OVCAR5 cells assessed as cell growth at 10 uM incubated for 48 hrs by sulforhodamine B assay relative to control; conditions: OVCAR-5, 48 h, read-out: Activity
# [11] = Growth inhibition of human MDA-MB-435 cells assessed as cell growth at 10 uM incubated for 48 hrs by sulforhodamine B assay relative to control; conditions: MDA-MB-435, 48 h, read-out: Activity
# [12] = Growth inhibition of human HL-60(TB) cells assessed as cell growth at 10 uM incubated for 48 hrs by sulforhodamine B assay relative to control; conditions: HL-60, 48 h, read-out: Activity
# [13] = Growth inhibition of human Caki1 cells assessed as cell growth at 10 uM incubated for 48 hrs by sulforhodamine B assay relative to control; conditions: CAKI-1, 48 h, read-out: Activity
# [14] = Growth inhibition of human Hs 578T cells assessed as cell growth at 10 uM incubated for 48 hrs by sulforhodamine B assay relative to control; conditions: read-out: Activity
# [15] = Growth inhibition of human RXF393 cells assessed as cell growth at 10 uM incubated for 48 hrs by sulforhodamine B assay relative to control; conditions: RXF 393, 48 h, read-out: Activity
# [16] = Growth inhibition of human U251 cells assessed as cell growth at 10 uM incubated for 48 hrs by sulforhodamine B assay relative to control; conditions: U-251, 48 h, read-out: Activity
# [17] = Growth inhibition of human MDA-MB-231 cells assessed as cell growth at 10 uM incubated for 48 hrs by sulforhodamine B assay relative to control; conditions: MDA-MB-231, 48 h, read-out: Activity
# [18] = Growth inhibition of human COLO205 cells assessed as cell growth at 10 uM incubated for 48 hrs by sulforhodamine B assay relative to control; conditions: COLO 205, 48 h, read-out: Activity
# [19] = Growth inhibition of human SK-MEL-2 cells assessed as cell growth at 10 uM incubated for 48 hrs by sulforhodamine B assay relative to control; conditions: SK-MEL-2, 48 h, read-out: Activity
# [20] = Growth inhibition of human UACC62 cells assessed as cell growth at 10 uM incubated for 48 hrs by sulforhodamine B assay relative to control; conditions: UACC-62, 48 h, read-out: Activity
# [21] = Growth inhibition of human PC3 cells assessed as cell growth at 10 uM incubated for 48 hrs by sulforhodamine B assay relative to control; conditions: PC-3, 48 h, read-out: Activity
# [22] = Growth inhibition of human SKOV3 cells assessed as cell growth at 10 uM incubated for 48 hrs by sulforhodamine B assay relative to control; conditions: SK-OV-3, 48 h, read-out: Activity
# [23] = Growth inhibition of human A498 cells assessed as cell growth at 10 uM incubated for 48 hrs by sulforhodamine B assay relative to control; conditions: A498, 48 h, read-out: Activity
# [24] = Growth inhibition of human CCRF-CEM cells assessed as cell growth at 10 uM incubated for 48 hrs by sulforhodamine B assay relative to control; conditions: read-out: Activity
# [25] = Growth inhibition of human SN12C cells assessed as cell growth at 10 uM incubated for 48 hrs by sulforhodamine B assay relative to control; conditions: read-out: Activity
# [26] = Growth inhibition of human BT549 cells assessed as cell growth at 10 uM incubated for 48 hrs by sulforhodamine B assay relative to control; conditions: BT-549, 48 h, read-out: Activity
# [27] = Growth inhibition of human UO31 cells assessed as cell growth at 10 uM incubated for 48 hrs by sulforhodamine B assay relative to control; conditions: UO-31, 48 h, read-out: Activity
# [28] = Growth inhibition of human SF268 cells assessed as cell growth at 10 uM incubated for 48 hrs by sulforhodamine B assay relative to control; conditions: SF-268, 48 h, read-out: Activity
# [29] = Growth inhibition of human K562 cells assessed as cell growth at 10 uM incubated for 48 hrs by sulforhodamine B assay relative to control; conditions: K562, 48 h, read-out: Activity
# [30] = Growth inhibition of human A549/ATCC cells assessed as cell growth at 10 uM incubated for 48 hrs by sulforhodamine B assay relative to control; conditions: A549, 48 h, read-out: Activity
# [31] = Growth inhibition of human HCC2998 cells assessed as cell growth at 10 uM incubated for 48 hrs by sulforhodamine B assay relative to control; conditions: HCC 2998, 48 h, read-out: Activity
# [32] = Growth inhibition of human KM12 cells assessed as cell growth at 10 uM incubated for 48 hrs by sulforhodamine B assay relative to control; conditions: KM12, 48 h, read-out: Activity
# [33] = Growth inhibition of human SK-MEL-5 cells assessed as cell growth at 10 uM incubated for 48 hrs by sulforhodamine B assay relative to control; conditions: SK-MEL-5, 48 h, read-out: Activity
# [34] = Growth inhibition of human T47D cells assessed as cell growth at 10 uM incubated for 48 hrs by sulforhodamine B assay relative to control; conditions: read-out: Activity
# [35] = Growth inhibition of human ACHN cells assessed as cell growth at 10 uM incubated for 48 hrs by sulforhodamine B assay relative to control; conditions: read-out: Activity
# [36] = Growth inhibition of human HT-29 cells assessed as cell growth at 10 uM incubated for 48 hrs by sulforhodamine B assay relative to control; conditions: HT-29, 48 h, read-out: Activity
SMILES,growth at 10 µM [1] [%],growth at 10 µM [2] [%],growth at 10 µM [3] [%],growth at 10 µM [4] [%],growth at 10 µM [5] [%],growth at 10 µM [6] [%],growth at 10 µM [7] [%],growth at 10 µM [8] [%],growth at 10 µM [9] [%],growth at 10 µM [10] [%],growth at 10 µM [11] [%],growth at 10 µM [12] [%],growth at 10 µM [13] [%],growth at 10 µM [14] [%],growth at 10 µM [15] [%],growth at 10 µM [16] [%],growth at 10 µM [17] [%],growth at 10 µM [18] [%],growth at 10 µM [19] [%],growth at 10 µM [20] [%],also measured
C[C@@H]1NC(c2ccc(Cl)cc2Cl)=Nc2nc3ccccn3c2C1=O,82.5,53,31.1,61.4,16.8,51.3,63.6,43.7,41.9,91.2,-16.6,0.46,47.2,52,80.2,41.4,64.6,22.3,38.2,40.5,growth at 10 µM [21]: 39.1%; growth at 10 µM [22]: 50.1%; growth at 10 µM [23]: 60.7%; growth at 10 µM [24]: 56.6%; growth at 10 µM [25]: 75.8%; growth at 10 µM [26]: 55.6%; growth at 10 µM [27]: 52.4%; growth at 10 µM [28]: 58.9%; growth at 10 µM [29]: 23.6%; growth at 10 µM [30]: 40.6%; growth at 10 µM [31]: 75.4%; growth at 10 µM [32]: 23.8%; growth at 10 µM [33]: 39.6%; growth at 10 µM [34]: 64.3%; growth at 10 µM [35]: 60.2%; growth at 10 µM [36]: 7.68%
C[C@@H]1NC(c2ccc3ccccc3c2)=Nc2nc3ccccn3c2C1=O,75.6,37.2,19.8,46.1,25.2,48.5,73.2,42.3,32.1,90.6,-24.6,-6.75,38.5,29.3,49.9,32.5,52.5,22.8,36.3,48.8,growth at 10 µM [21]: 52%; growth at 10 µM [22]: 40.5%; growth at 10 µM [23]: 47.2%; growth at 10 µM [24]: 52.9%; growth at 10 µM [25]: 60.1%; growth at 10 µM [26]: 35.1%; growth at 10 µM [27]: 55.6%; growth at 10 µM [28]: 58%; growth at 10 µM [29]: 27.6%; growth at 10 µM [30]: 39.5%; growth at 10 µM [31]: 77%; growth at 10 µM [32]: 30.3%; growth at 10 µM [33]: 35.3%; growth at 10 µM [34]: 41.7%; growth at 10 µM [35]: 55.4%; growth at 10 µM [36]: 5.93%
CC(C)(C)OC[C@@H]1NC(c2ccc(Br)cc2)=Nc2nc3ccccn3c2C1=O,81.6,75.8,46.4,71.5,27.8,58.7,84.8,51.5,40.8,105,-13.8,33.1,64.2,65.2,61.6,63.5,61.5,62.6,49.2,53.6,growth at 10 µM [21]: 53.4%; growth at 10 µM [22]: 64.3%; growth at 10 µM [23]: 66.9%; growth at 10 µM [24]: 67.8%; growth at 10 µM [25]: 84.1%; growth at 10 µM [26]: 72.5%; growth at 10 µM [27]: 52.1%; growth at 10 µM [28]: 74.3%; growth at 10 µM [29]: 25.2%; growth at 10 µM [30]: 51.6%; growth at 10 µM [31]: 90.9%; growth at 10 µM [32]: 49%; growth at 10 µM [33]: 38.4%; growth at 10 µM [34]: 61.9%; growth at 10 µM [35]: 75.3%; growth at 10 µM [36]: 21.8%
